Square brackets hold non-standard residues; d marks the D form. Peptide text beside a SMILES is read from it. MeBmt = C/C=C/C[C@@H](C)[C@@H](O)[C@H](NC)C(=O)O; NMeF = CN[C@@H](Cc1ccccc1)C(=O)O; NMeI = CC[C@H](C)[C@H](NC)C(=O)O; NMeT = CN[C@H](C(=O)O)[C@@H](C)O; NMeL = CN[C@@H](CC(C)C)C(=O)O; Tle = CC(C)(C)[C@H](N)C(=O)O; NMeV = CN[C@H](C(=O)O)C(C)C; NMeA = CN[C@@H](C)C(=O)O; dNMeA = CN[C@H](C)C(=O)O; Abu = CC[C@H](N)C(=O)O; Sar = CNCC(=O)O
These compounds were tested against T1, Cyclophilin A (Homo sapiens, UniProt P62937) (assay: biochemical). Conditions: not given.
T1 construct: made in house
T1 sequence (P62937 whole entry, species assumed): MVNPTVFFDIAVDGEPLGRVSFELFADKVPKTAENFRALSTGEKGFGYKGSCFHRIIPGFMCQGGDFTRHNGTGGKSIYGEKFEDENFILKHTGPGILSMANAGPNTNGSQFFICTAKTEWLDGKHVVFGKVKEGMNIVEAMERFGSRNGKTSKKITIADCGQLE
Assay type: binding
Description: This protocol utilizes Perkin Elmers AlphaLISA technology platform to detect cyclosporine analogues by measuring the inhibition of binding of biotinylated Cyclosporin A to FLAG tagged Cyclophilin A.
Add 20 uL of 6 nM Biotinylated CsA working stock to each well of the 96-well plate. Add 1 uL of test compound (100% DMSO) to each well of the plate using the Janus MTD head and P20 tips (except control wells). Add 1 uL of DMSO to negative control wells and 1 uL of 500 uM Cyclosporin A solution to positive control wells. In the dark, add 20 uL of combined Donor/Acceptor beads to each well. Incubate in the dark for 30 minutes at room temperature. […] Incubate in the dark for 60 minutes at room temperature.

Row | SMILES | % inhibition of CsA binding to Cyclophilin A [%]
1 | C/C=C/C[C@@H](C)[C@@H](O)[C@H]1C(=O)N[C@@H](CC)C(=O)N(C)CC(=O)N(C)[C@H](C)C(=O)N[C@@H](CC(C)C)C(=O)N(C)[C@@H](C)C(=O)N[C@@H](C)C(=O)N[C@H](C)C(=O)N(C)[C@@H](CC(C)C)C(=O)N(C)[C@@H](CC(C)C)C(=O)N(C)[C@@H](C(C)C)C(=O)N1C [C11] (cyclo([MeBmt][Abu][Sar][dNMeA]L[NMeA]A[dA][NMeL][NMeL][NMeV])) | 93.73
2 | C/C=C/C[C@@H](C)[C@@H](O)[C@H]1C(=O)N[C@@H](CC)C(=O)N(C)CC(=O)N(C)[C@@H](CC(C)C)C(=O)N[C@@H](CC(C)C)C(=O)N(C)[C@@H](C)C(=O)N[C@@H](C)C(=O)N[C@H](C)C(=O)N(C)[C@@H](CC(C)C)C(=O)N(C)[C@@H](CC(C)C)C(=O)N(C)[C@@H](C(C)C)C(=O)N1C [C14] (cyclo([MeBmt][Abu][Sar][NMeL]L[NMeA]A[dA][NMeL][NMeL][NMeV])) | 90.64
3 | C/C=C/C[C@@H](C)[C@@H](O)[C@H]1C(=O)N[C@@H](CC)C(=O)N(C)CC(=O)N(C)[C@@H](C)C(=O)N[C@@H](C)C(=O)N(C)CC(=O)N[C@@H](C)C(=O)N[C@H](C)C(=O)N(C)[C@@H](CC(C)C)C(=O)N(C)[C@@H](CC(C)C)C(=O)N(C)[C@@H](C(C)C)C(=O)N1C [C18] (cyclo([MeBmt][Abu][Sar][NMeA]A[Sar]A[dA][NMeL][NMeL][NMeV])) | 97.88
4 | C/C=C/C[C@@H](C)[C@@H](O)[C@H]1C(=O)N[C@@H](CC)C(=O)N(C)CC(=O)N(C)[C@@H]([C@@H](C)CC)C(=O)N[C@@H](C(C)C)C(=O)N(C)CC(=O)N[C@@H](C)C(=O)N[C@H](C)C(=O)N(C)[C@@H](CC(C)C)C(=O)N(C)[C@@H](CC(C)C)C(=O)N(C)[C@@H](C(C)C)C(=O)N1C [C25] (cyclo([MeBmt][Abu][Sar][NMeI]V[Sar]A[dA][NMeL][NMeL][NMeV])) | 99.63
5 | C/C=C/C[C@@H](C)[C@@H](O)[C@H]1C(=O)N[C@@H](CC)C(=O)N(C)CC(=O)N(C)[C@H](C)C(=O)N[C@@H](C(C)C)C(=O)N(C)CC(=O)N[C@@H](C)C(=O)N[C@H](C)C(=O)N(C)[C@@H](CC(C)C)C(=O)N(C)[C@@H](CC(C)C)C(=O)N(C)[C@@H](C(C)C)C(=O)N1C [C27] (cyclo([MeBmt][Abu][Sar][dNMeA]V[Sar]A[dA][NMeL][NMeL][NMeV])) | 94.73
6 | C/C=C/C[C@@H](C)[C@@H](O)[C@H]1C(=O)N[C@@H](CC)C(=O)N(C)CC(=O)N(C)[C@@H](Cc2ccccc2)C(=O)N[C@@H](C(C)C)C(=O)N(C)CC(=O)N[C@@H](C)C(=O)N[C@H](C)C(=O)N(C)[C@@H](CC(C)C)C(=O)N(C)[C@@H](CC(C)C)C(=O)N(C)[C@@H](C(C)C)C(=O)N1C [C28] (cyclo([MeBmt][Abu][Sar][NMeF]V[Sar]A[dA][NMeL][NMeL][NMeV])) | 98.94
7 | C/C=C/C[C@@H](C)[C@@H](O)[C@H]1C(=O)N[C@@H](CC)C(=O)N(C)CC(=O)N(C)CC(=O)N[C@@H](C(C)C)C(=O)N(C)CC(=O)N[C@@H](C)C(=O)N[C@H](C)C(=O)N(C)[C@@H](CC(C)C)C(=O)N(C)[C@@H](CC(C)C)C(=O)N(C)[C@@H](C(C)C)C(=O)N1C [C29] (cyclo([MeBmt][Abu][Sar][Sar]V[Sar]A[dA][NMeL][NMeL][NMeV])) | 98.77
8 | C/C=C/C[C@@H](C)[C@@H](O)[C@H]1C(=O)N[C@@H](CC)C(=O)N(C)CC(=O)N(C)[C@H](C)C(=O)N[C@@H](C(C)C)C(=O)N(C)[C@@H](CC(C)C)C(=O)N[C@@H](CC(C)C)C(=O)N[C@H](C)C(=O)N(C)[C@@H](CC(C)C)C(=O)N(C)[C@@H](CC(C)C)C(=O)N(C)[C@@H](C(C)C)C(=O)N1C [C47] (cyclo([MeBmt][Abu][Sar][dNMeA]V[NMeL]L[dA][NMeL][NMeL][NMeV])) | 95.71
9 | C/C=C/C[C@@H](C)[C@@H](O)[C@H]1C(=O)N[C@@H](CC)C(=O)N(C)CC(=O)N(C)[C@@H]([C@@H](C)O)C(=O)N[C@@H](C(C)(C)C)C(=O)N(C)[C@@H](C)C(=O)N[C@@H](CC(C)C)C(=O)N[C@H](C)C(=O)N(C)[C@@H](CC(C)C)C(=O)N(C)[C@@H](CC(C)C)C(=O)N(C)[C@@H](C(C)C)C(=O)N1C [C75] (cyclo([MeBmt][Abu][Sar][NMeT][Tle][NMeA]L[dA][NMeL][NMeL][NMeV])) | 96.12
10 | C/C=C/C[C@@H](C)[C@@H](O)[C@H]1C(=O)N[C@@H](CC)C(=O)N(C)CC(=O)N(C)[C@@H](C(C)C)C(=O)N[C@@H](C(C)(C)C)C(=O)N(C)[C@@H](C)C(=O)N[C@@H](CC(C)C)C(=O)N[C@H](C)C(=O)N(C)[C@@H](CC(C)C)C(=O)N(C)[C@@H](CC(C)C)C(=O)N(C)[C@@H](C(C)C)C(=O)N1C [C77] (cyclo([MeBmt][Abu][Sar][NMeV][Tle][NMeA]L[dA][NMeL][NMeL][NMeV])) | 99.56

Same assay, conditions: read-out: IC50 value of CsA binding to Cyclophilin A

Row | SMILES | IC50 [nM]
11 | C/C=C/C[C@@H](C)[C@@H](O)[C@H]1C(=O)N[C@@H](CC)C(=O)N(C)CC(=O)N(C)[C@H](C)C(=O)N[C@@H](CC(C)C)C(=O)N(C)[C@@H](C)C(=O)N[C@@H](C)C(=O)N[C@H](C)C(=O)N(C)[C@@H](CC(C)C)C(=O)N(C)[C@@H](CC(C)C)C(=O)N(C)[C@@H](C(C)C)C(=O)N1C [C11] (cyclo([MeBmt][Abu][Sar][dNMeA]L[NMeA]A[dA][NMeL][NMeL][NMeV])) | < 2000
12 | C/C=C/C[C@@H](C)[C@@H](O)[C@H]1C(=O)N[C@@H](CC)C(=O)N(C)CC(=O)N(C)[C@H](C)C(=O)N[C@@H](C(C)C)C(=O)N(C)[C@@H](CC(C)C)C(=O)N[C@@H](CC(C)C)C(=O)N[C@H](C)C(=O)N(C)[C@@H](CC(C)C)C(=O)N(C)[C@@H](CC(C)C)C(=O)N(C)[C@@H](C(C)C)C(=O)N1C [C47] (cyclo([MeBmt][Abu][Sar][dNMeA]V[NMeL]L[dA][NMeL][NMeL][NMeV])) | < 2000
